# Key:
# [1] = target: T1, Amine oxidase [flavin-containing] B (Rattus norvegicus, UniProt P19643); test: In vitro inhibitory activity against rat brain Monoamine oxidase B
# T1 sequence (P19643 whole entry): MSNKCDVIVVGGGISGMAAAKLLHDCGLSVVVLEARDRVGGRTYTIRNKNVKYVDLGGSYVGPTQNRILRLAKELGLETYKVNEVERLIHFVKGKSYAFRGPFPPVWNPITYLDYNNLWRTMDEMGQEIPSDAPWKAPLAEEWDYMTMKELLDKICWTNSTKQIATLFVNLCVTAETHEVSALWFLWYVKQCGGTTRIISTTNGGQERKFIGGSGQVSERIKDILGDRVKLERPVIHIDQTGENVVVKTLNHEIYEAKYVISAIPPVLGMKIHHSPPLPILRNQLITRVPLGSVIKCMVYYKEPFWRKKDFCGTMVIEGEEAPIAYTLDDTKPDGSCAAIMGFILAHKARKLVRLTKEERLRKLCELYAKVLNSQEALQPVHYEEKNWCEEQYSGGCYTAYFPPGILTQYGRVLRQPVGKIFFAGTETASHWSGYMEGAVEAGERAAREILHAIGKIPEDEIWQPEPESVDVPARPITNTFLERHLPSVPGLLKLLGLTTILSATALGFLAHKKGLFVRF
# [2] = target: T2, Amine oxidase [flavin-containing] A (Rattus norvegicus, UniProt P21396); test: In vitro inhibitory activity against rat brain Monoamine oxidase A
# T2 sequence (P21396 whole entry): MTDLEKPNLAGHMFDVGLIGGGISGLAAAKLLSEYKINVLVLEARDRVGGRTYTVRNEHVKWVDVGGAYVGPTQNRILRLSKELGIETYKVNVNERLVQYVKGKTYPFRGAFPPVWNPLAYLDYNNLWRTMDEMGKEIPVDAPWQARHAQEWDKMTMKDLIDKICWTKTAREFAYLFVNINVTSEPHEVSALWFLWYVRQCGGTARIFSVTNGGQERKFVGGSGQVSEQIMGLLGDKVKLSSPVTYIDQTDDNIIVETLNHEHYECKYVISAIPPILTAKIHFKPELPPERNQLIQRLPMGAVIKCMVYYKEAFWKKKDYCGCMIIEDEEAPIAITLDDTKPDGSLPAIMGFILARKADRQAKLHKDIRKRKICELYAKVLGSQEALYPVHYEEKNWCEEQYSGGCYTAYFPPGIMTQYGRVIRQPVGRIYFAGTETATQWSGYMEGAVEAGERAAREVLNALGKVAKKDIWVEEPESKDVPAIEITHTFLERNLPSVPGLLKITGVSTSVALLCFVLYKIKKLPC
# [3] = Selectivity for the B form was estimated by the IC50(MAO A)/IC50(MAO B) ratio.
# [4] = target: T1, Amine oxidase [flavin-containing] B; test: Compound was evaluated for the Inhibition of Monoamine oxidase B
# [5] = target: T2, Amine oxidase [flavin-containing] A; test: Ex vivo inhibitory activity against rat brain monoamine oxidase (MAO) type A at a dose of 5 mg/kg administered orally at 0.5 hr; type: functional, organism-based; parameters: dose 5 mg/kg, route oral; conditions: po
# [6] = target: T2, Amine oxidase [flavin-containing] A; test: (§1) Ex vivo inhibitory activity against rat brain monoamine oxidase (MAO) type A at a dose of 5 mg/kg administered orally at 1 hr; type: functional, organism-based; parameters: dose 5 mg/kg, route oral; conditions: po
# [7] = target: T2, Amine oxidase [flavin-containing] A; test: Ex vivo inhibitory activity against rat brain monoamine oxidase (MAO) type A at a dose of 5 mg/kg administered orally at 24 hr; type: functional, organism-based; parameters: dose 5 mg/kg, route oral; conditions: po
# [8] = target: T2, Amine oxidase [flavin-containing] A; test: Ex vivo inhibitory activity against rat brain monoamine oxidase (MAO) type A at a dose of 5 mg/kg administered orally at 4 hr; type: functional, organism-based; parameters: dose 5 mg/kg, route oral; conditions: po
# [9] = target: T1, Amine oxidase [flavin-containing] B; test: Compound was evaluated for inhibitory activity against monoamine oxidase (MAO) type B by reversibility test after dialysis at a concentration of 0.001 uM; conditions: read-out: Control
# [10] = target: T1, Amine oxidase [flavin-containing] B; test: (§2) Compound was evaluated for inhibitory activity against monoamine oxidase (MAO) type B by reversibility test after dialysis at a concentration of 0.1 uM; conditions: read-out: Control
# [11] = target: T1, Amine oxidase [flavin-containing] B; test: Compound was evaluated for inhibitory activity against monoamine oxidase (MAO) type B by reversibility test before dialysis at a concentration of 0.001 uM; type: functional; conditions: read-out: Control
# [12] = target: T1, Amine oxidase [flavin-containing] B; test: (§3) Compound was evaluated for inhibitory activity against monoamine oxidase (MAO) type B by reversibility test before dialysis at a concentration of 0.1 uM; conditions: read-out: Control
# [13] = target: T1, Amine oxidase [flavin-containing] B; test: Ex vivo inhibitory activity against rat brain monoamine oxidase (MAO) type B at a dose of 5 mg/kg administered orally at 0.5 hr; type: functional, organism-based; parameters: dose 5 mg/kg, route oral; conditions: po
# [14] = target: T1, Amine oxidase [flavin-containing] B; test: (§4) Ex vivo inhibitory activity against rat brain monoamine oxidase (MAO) type B at a dose of 5 mg/kg administered orally at 1 hr; type: functional, organism-based; parameters: dose 5 mg/kg, route oral; conditions: po
# [15] = target: T1, Amine oxidase [flavin-containing] B; test: Ex vivo inhibitory activity against rat brain monoamine oxidase (MAO) type B at a dose of 5 mg/kg administered orally at 24 hr; type: functional, organism-based; parameters: dose 5 mg/kg, route oral; conditions: po
# [16] = target: T1, Amine oxidase [flavin-containing] B; test: Ex vivo inhibitory activity against rat brain monoamine oxidase (MAO) type B at a dose of 5 mg/kg administered orally at 4 hr; type: functional, organism-based; parameters: dose 5 mg/kg, route oral; conditions: po
# [17] = target: T2, Amine oxidase [flavin-containing] A; test: Ex vivo inhibitory activity against rat brain monoamine oxidase (MAO) type A at a dose of 5 mg/kg administered orally at 8 hr; type: functional, organism-based; parameters: dose 5 mg/kg, route oral; conditions: po
# [18] = target: T1, Amine oxidase [flavin-containing] B; test: as §4; conditions: po
# [19] = target: T2, Amine oxidase [flavin-containing] A; test: as §1; type: organism-based; parameters: dose 5 mg/kg, route oral; conditions: po
# [20] = target: T1, Amine oxidase [flavin-containing] B; test: as §2; type: functional; conditions: read-out: Control
# [21] = target: T1, Amine oxidase [flavin-containing] B; test: as §3; type: functional; conditions: read-out: Control
structure (smiles),measurement,setting,value
O=[N+]([O-])c1ccc(-c2nnn(CCO)n2)cc1,IC50,[1],> 100 µM
same,IC50,[2],> 100 µM
Cc1ccccc1COc1ccc(-c2nnn(CCO)n2)cc1,IC50,[2],> 100 µM
same,Selectivity,[3],> 350
N#CCCn1nnc(-c2ccncc2)n1,IC50,[1],30 µM
same,IC50,[2],> 100 µM
OCCn1nnc(-c2ccc(OCc3ccccc3I)cc2)n1,IC50,[1],0.35 µM
same,IC50,[2],> 100 µM
N#CCCn1nc(-c2ccc(OCc3ccccc3)cc2)oc1=O,IC50,[4],0.0046 µM
N#CCCn1nnc(-c2ccc(OCc3cccc(Cl)c3)cc2)n1,inhibition at 5 mg/kg,[5],13%
same,inhibition at 5 mg/kg,[6],18%
same,inhibition at 5 mg/kg,[7],1%
same,inhibition at 5 mg/kg,[8],8%
same,remaining activity at 0.001 µM,[9],95%
same,remaining activity at 0.1 µM,[10],87%
same,remaining activity at 0.001 µM,[11],69%
same,remaining activity at 0.1 µM,[12],15%
same,IC50,[1],0.1 µM
same,inhibition at 5 mg/kg,[13],72%
same,inhibition at 5 mg/kg,[14],81%
same,inhibition at 5 mg/kg,[15],9%
same,IC50,[2],> 100 µM
same,Selectivity,[3],> 1000
same,inhibition at 5 mg/kg,[16],63%
COc1ccc(-c2nnn(CCC#N)n2)cc1,IC50,[1],37 µM
same,IC50,[2],16.6 µM
COc1cccc(COc2ccc(-c3nnn(CCO)n3)cc2)c1,IC50,[2],80 µM
OCCn1nnc(-c2ccc(OCc3ccc(F)cc3)cc2)n1,IC50,[2],> 100 µM
N#CCCn1nc(-c2ccc(OCc3ccccc3)cc2)oc1=S,IC50,[4],0.0046 µM
COc1ccc(COc2ccc(-c3nnn(CCC#N)n3)cc2)cc1,IC50,[2],> 100 µM
COc1ccc(-c2nnn(CCO)n2)cc1,IC50,[1],> 100 µM
same,IC50,[2],46 µM
N#CCCn1nnc(-c2ccc(Cl)cc2)n1,IC50,[1],3.6 µM
same,IC50,[2],6.5 µM
C#CCN(C)[C@H](C)Cc1ccccc1 [SELEGILINE],inhibition at 5 mg/kg,[7],2%
same,inhibition at 5 mg/kg,[17],5%
same,inhibition at 5 mg/kg,[18],83%
same,inhibition at 5 mg/kg,[15],81%
same,inhibition at 5 mg/kg,[19],3%
N#CCCn1nnc(-c2ccc(OCc3ccc(F)cc3)cc2)n1,IC50,[2],> 100 µM
COc1ccc2c3c([nH]c2c1)C(C)=NCC3 [HARMALINE],IC50,[1],150 µM
same,IC50,[2],0.012 µM
same,Selectivity,[3],5
Cc1ccccc1COc1ccc(-c2nnn(CCC#N)n2)cc1,IC50,[2],> 100 µM
N#CCCn1nnc(-c2ccc(OCc3ccc(Cl)cc3)cc2)n1,IC50,[1],0.08 µM
same,IC50,[2],> 100 µM
OCCCCn1nnc(-c2ccc(-c3ccccc3)cc2)n1,IC50,[1],9.4 µM
same,IC50,[2],13 µM
OCCn1nnc(-c2ccc(OCc3cccc(Cl)c3)cc2)n1,inhibition at 5 mg/kg,[5],15%
same,inhibition at 5 mg/kg,[6],15%
same,inhibition at 5 mg/kg,[8],14%
same,remaining activity at 0.1 µM,[20],109%
same,remaining activity at 0.1 µM,[21],25%
same,IC50,[1],0.2 µM
same,inhibition at 5 mg/kg,[13],69%
same,inhibition at 5 mg/kg,[14],71%
same,IC50,[2],58 µM
same,Selectivity,[3],290
same,inhibition at 5 mg/kg,[16],55%
OCCn1nnc(-c2ccc(-c3ccccc3)cc2)n1,IC50,[1],0.96 µM
same,IC50,[2],11 µM
